# Experiments:
# Human KARS = target: T1, Human KARS (Homo sapiens, UniProt Q15046); experiment: KARS AMP Transcreener FP assay; type: biochemical; conditions: 50 nM human KARS, 20 μM ATP, 50 μM L-Lysine, 1 μM tRNA, 2 h at RT; read-out: Human KARS Transcreener AMP assay Qualified absolute AC50
# T1 construct: Human KARS protein (residues 70-584) was expressed and purified; made in house
# Source text: KARS AMP Transcreener FP Assay to Measure Inhibition of KARS Enzymatic Activity
# Lysine-tRNA synthetase (KARS) is an enzyme that catalyzes the reaction of ATP, L-lysine, and tRNA(Lys) to form AMP, diphosphate, and L-lysyl-tRNA(Lys).
# The Transceener® AMP/GMP (BellBrook Labs, Madison, WI, USA) is a far red, competitive fluorescence polarization (FP) immunoassay based on the detection of AMP, which is one of the products of aminoacylation of tRNA. In this assay, a fluorescently labeled AMP (AMP Alexa Fluor 633) is used as the tracer that can be recognized by a specific antibody. In the absence of AMP, all the tracer molecules are bound to the antibodies leading to large polarization. The AMP product generated by the enzyme reaction will compete with the tracer for binding to the antibody which leads to a decrease in the polarization. As such, the enzyme activity is inversely proportional to FP values.
# Human KARS protein (residues 70-584) was expressed and purified using a similar protocol to what is described in literature (Crystal structure of tetrameric form of human lysyl-tRNA synthetase: Implications for multisynthetase complex formation Guo, M., Ignatov, M., Musier-Forsyth, K., Schimmel, P., Yang, X. L. (2008) Proc. Natl. Acad. Sci. Usa 105: 2331-2336).
# The KARS enzyme assay was performed in a final volume of 10 μL per well of Corning Costar 384 well plate, flat bottom, black non-treated plate. The final assay concentration was 20 mM HEPES pH 7.5, 1 mM DTT, 50 nM human KARS, 20 μM ATP, 50 μM L-Lysine, 1 μM tRNA and 8 mM MgCl2. Compounds were serial diluted 1:3 in DMSO in a master plate to generate a 10 concentration points dose response with maximum concentration of 10 mM. 50 nL from compound master plate were spotted in each well of a 384 black plate (Corning 3573), and 5 μL of enzyme mixture containing 100 nM KARS diluted in assay buffer (20 mM HEPES pH 7.5 and 1 mM OTT) were added. The reaction was started by adding 5 μL of the substrate mixture containing 40 μM ATP (final 20 μM ATP), 100 μM L-Lysine (final 50 μM), 2 μM tRNA (final 1 μM), 16 mM MgCl2 (final 8 mM MgCl2) diluted in assay buffer (20 mM HEPES pH 7.5 and 1 mM OTT). The mixtures were mixed and incubated for 2 h at RT before the termination of the reaction.
# Transcreener® stop and detection buffers were prepared (1× stop buffer [final: 0.5×], 2 nM Tracer [final: 1 nM] and 5 μg/ml anti-AMP antibody [final: 2.5 μg/ml] in deionized water) and 10 μL of the stop and detection mix were added to the reaction wells, mixed for a minute and centrifuged at 1000 rpm for 10 seconds. The plates were read after incubating at RT for 30-60 min using Infinite® M1000 with the following settings: Excitation wavelength: 635 nm; Emission wavelength: 680 nm. FP values of DMSO controls were used to normalize the data and calculate IC50s of compounds using the Helios Software suite.
# [1] = tested on: NCI-H1944 (KEAP1 mutant, AKR1C3 expressing) cell line derived lung cancer xenografts; experiment: PK/PD in NCI-H1944 xenograft (tumor DDIT3 and EGR1 mRNA induction); type: in vivo, mice; conditions: single oral administration
# Protocol: Compound 40 Dose Dependent Pharmacokinetics and Pharmacodynamic (PK/PD) Changes in the KEAP1 Mutant AKR1C3 Expressing Human Lung Cancer Xenograft NCI-H1944
# The PK/PD relationship of Compound 40 was assessed in nude mice with established subcutaneous NCI-H1944 (KEAP1 mutant, AKR1C3 expressing) cell line derived lung cancer xenografts (FIG. 2). After a single oral administration of Compound 40, blood and tumor were collected to explore the PK profile of Compound 40 levels in blood and tumor. Compound 152, the active metabolite of the prodrug Compound 40 that inhibits KARS was also measured in tumor and blood. The PK data were compared to the tumor PD marker readouts of DDIT3 and EGR1 mRNA induction, downstream transcriptional readouts of KARS inhibition.
# [2] = tested on: NCI-H1944 human lung cancer xenograft; experiment: In vivo efficacy in NCI-H1944 xenograft; set-up: species or system mice
# Protocol: Compound 40 Dose Dependent In Vivo Efficacy in High AKR1C3 Expressing Human Lung Cancer Xenograft NCI-H1944
# Anti-cancer efficacy of Compound 40 was assessed in the NCI-H1944 human lung cancer xenograft model in mice that expresses high levels of AKR1C3. NCI-H1944 tumors were established in nude female mice by injection of a tumor cells subcutaneously. When tumors reached approximately 200 mm^3, mice were randomized according to tumor volume into treatment groups (n=8 per group) on Day 16.
# T1 sequence (Q15046 70-584): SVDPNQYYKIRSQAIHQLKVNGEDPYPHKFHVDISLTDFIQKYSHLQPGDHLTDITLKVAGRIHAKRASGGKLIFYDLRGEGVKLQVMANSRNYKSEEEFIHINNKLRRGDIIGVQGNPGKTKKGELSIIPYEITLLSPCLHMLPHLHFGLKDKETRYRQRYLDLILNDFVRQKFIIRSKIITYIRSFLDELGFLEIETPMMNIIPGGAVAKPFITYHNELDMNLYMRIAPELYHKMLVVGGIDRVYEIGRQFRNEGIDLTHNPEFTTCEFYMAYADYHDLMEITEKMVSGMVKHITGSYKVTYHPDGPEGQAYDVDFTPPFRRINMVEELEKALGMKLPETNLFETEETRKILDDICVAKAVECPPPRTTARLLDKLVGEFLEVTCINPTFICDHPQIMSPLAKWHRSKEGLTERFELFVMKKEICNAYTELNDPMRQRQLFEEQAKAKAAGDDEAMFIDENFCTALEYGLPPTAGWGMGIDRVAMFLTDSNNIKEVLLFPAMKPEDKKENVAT
compound,measurement,setting,value
O=C1CC2(CCN(C(=O)NCc3ccc(F)cc3)CC2)Nc2ccc(F)cc21 [Example 40],AC50,Human KARS,> 10 µM
same,duration of the induction of DDIT3 and EGR1 mRNA levels,"[1]; dose escalation, NCI-H1944 xenografts",increased with dose escalation
same,tumor PD markers (DDIT3 and EGR1 mRNA induction) after dosing,[1]; nude mice with NCI-H1944 xenografts,remained elevated for 24 hours post-dose
same,ΔT/ΔC,"[2]; 75 mg/kg po, qd, Day 44",4.9%
same,Tumor response,[2]; 75 mg/kg qd po,Tumor stasis
same,Regression,"[2]; 150 mg/kg po, qd, Day 44",98.5%
same,Regression,"[2]; 300 mg/kg po, qd, Day 44",100%
same,Tumor response,[2]; all dose levels,efficacy benefit
same,Tumor response,"[2]; dose levels above 75 mg/kg qd, po",deep tumor regression

# Source: patent US11970497B2, “Tricyclic AKR1C3 dependent KARS inhibitors” (Novartis AG, priority 2019, dated 2024)
